Several values for one entry are separate records, joined by “and”; a condition that tells them apart may be missing. Equal entries are not always repeated.
Test system: 874868-142-R-J2-PDC complex spheroids, growth % test/control
Assay: Anticancer human tumor 874868-142-R-J2-PDC patient-derived head and neck squamous carcinoma cell line growth inhibition [CLK]
Conditions: for viability, T/C: stronger effect = lower value
From the text: A high-throughput screen of multi-cell type tumor spheroids was designed to identify active combinations of […] and targeted small molecules. Complex spheroids include a stromal component modeled by human endothelial cells (HUVEC) and fibroblasts modeled by human mesenchymal stem cells (MSCs). The concentration ranges selected for each drug and investigational agent were based upon clinically achievable concentrations if the clinical Cmax of the agent was known.
Compounds. The drugs and investigational agents: cirtuvivint (SM08502; NSC835563), CC-671 (NSC850746), vemurafenib (NSC761431), tapotoclax (NSC804041), sotorasib (NSC818433), adagrasib (NSC831453), MRTX-1133 (NSC836407), BAY2416964 (NSC825713), copanlisib (NSC816437), inavolisib (NSC800729), abemaciclib (NSC768073), osimertinib (NSC779217), entinostat (NSC756642), eltanexor (KPT-8602, NSC794443), venetoclax (NSC766270), ceralasertib (NSC777638), bortezomib (NSC756655), olaparib (NSC753686), talazoparib (NSC767125), alisertib (NSC759677), peposertib (NSC802822), gemcitabine (NSC613327), 5-fluorouracil (NSC19893), SN-38 (NSC673596), oxaliplatin (NSC266046), paclitaxel (NSC125973), and doxorubicin (NSC123127), were obtained from the National Cancer Institute (NCI) Developmental Therapeutics Program Chemical Repository. The FDA-approved anticancer drug set is available from the Developmental Therapeutics Program at https://dtp.cancer.gov/organization/dscb/obtaining/available plates.htm. […] The stock solutions were prepared in dimethyl sulfoxide (DMSO, Sigma-Aldrich, St. Louis, MO, cat. D2650), except for the platinum complexes which were prepared in saline (Quality Biological, Gaithersburg, MD, cat. 114-055-101), at 800-fold the tested concentration and stored at -70 degrees C prior to their use. All drugs and investigational agents were tested over a range starting from a high concentration at or near the clinical Cmax and decreasing in half-log increments. If the clinical Cmax for an agent had not been determined, the highest concentration tested was 10 microM.
Cell Culture. All cells were maintained in an incubator at 37 degrees C and 5% CO2 with 95% humidity. The PDC lines were cultured according to standard operating procedures established by the NCI PDMR. Briefly, all PDCs were thawed and cultured in Matrigel-coated flasks prepared with a working solution of 1X Ham's F-12 nutrient mix, without supplementation (Invitrogen, Waltham, MA, cat. 11765054), 100 U/mL penicillin-streptomycin (Invitrogen, cat. 15140122), and 2.5% Matrigel (Corning Inc., Corning, NY, cat. 354248) for the first three passages. The 947758-054-R-J2-PDC line was cultured in 6B/Colon 1A media, which includes advanced DMEM/F-12 (Thermo Fisher Scientific, cat. 12634028), 10 mM HEPES (Thermo Fisher Scientific, cat. 15630080), 1X GlutaMAX supplement (Thermo Fisher Scientific, cat. 35050061), 0.1 mg/mL primocin (InvivoGen, cat. ant-pm-2), 10% defined fetal bovine serum, heat inactivated (HyClone Laboratories Inc., cat. SH30070.03HI), 1.25 mM N-Acetyl-L-cysteine (Sigma-Aldrich, cat. A9165), 10 mM nicotinamide (Sigma-Aldrich, cat. N0636), 1X B-27 supplement (Thermo Fisher Scientific, cat. 17504044), 1X N-2 supplement (Thermo Fisher Scientific, cat. 17502048), and 10 microM Y-27632 dihydrochloride (Tocris Bioscience, cat. 1254). The 876862-298-R-J1-PDC was cultured in 6E media, which includes all 6B/Colon 1A media components plus 50% L-WRN conditioned media (ATCC, cat. CRL-3276), 50 ng/mL recombinant human EGF recombinant protein (hEGF; Thermo Fisher Scientific, cat. PHG0311), 10 ng/mL recombinant human fibroblast growth factor 10 (hGFG-10; PeproTech, cat. 100-26), 1 ng/mL recombinant human fibroblast growth factor 2 (hFGF-2; PeproTech, cat. 100-18B), and 1 µM prostaglandin E2 (PGE2; Tocris, cat. 2296). The 227483-062-R1-J1-PDC line was cultured in Panc media, containing all 6E components except hFGF-2, with the addition of 500 nM SB-431542 (Selleckchem, cat. S1067) and 10 nM gastrin (Tocris, cat. 3006). […]
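Further: spheroids exposed to the compounds for 7 days.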

IC50 (curve of compound)	IC50 (compound alone, run of 09/18/2023)	Compound	viability, T/C (compound 0.0316 µM)	viability, T/C (compound 0.1 µM)	viability, T/C (compound 0.316 µM)	viability, T/C (compound 1 µM)	viability, T/C (compound 3.16 µM)	viability, T/C (compound 10 µM)	viability, T/C (compound 0.000949 µM)	viability, T/C (compound 0.003 µM)	viability, T/C (compound 0.00949 µM)	viability, T/C (compound 0.03 µM)	viability, T/C (compound 0.0949 µM)	viability, T/C (compound 0.3 µM)	viability, T/C (compound 0.00316 µM)	viability, T/C (compound 0.01 µM)	viability, T/C (compound 0.000316 µM)	viability, T/C (compound 0.001 µM)	viability, T/C (compound 0.949 µM)	viability, T/C (compound 3 µM)
9280 nM and > 10000 nM		C#Cc1c(F)ccc2cc(O)cc(-c3ncc4c(N5CC6CCC(C5)N6)nc(OCC56CCCN5CC(F)C6)nc4c3F)c12 (centres undefined)	87.8% and 104%	90.5% and 95.1%	85.1% and 93.7%	82.3% and 61%	61.4% and 59%	49.3% and 46%												
3200 nM and 4140 nM		C=C(F)C(=O)N1CCN(c2nc(OCC3CCCN3C)nc3c2CCN(c2cccc4cccc(Cl)c24)C3)CC1CC#N (centres undefined)	81.4% and 94.5%	95.2% and 103%	76.2% and 82.3%	68.4% and 87.2%	53.2% and 64.6%	1.63% and 4.44%												
> 10000 nM		C=CC(=O)N1CCN(c2nc(=O)n(-c3c(C)ccnc3C(C)C)c3nc(-c4c(O)cccc4F)c(F)cc23)C(C)C1 (centres undefined)	109% and 92.4%	84.9% and 96%	109% and 104%	119% and 104%	133% and 131%	114% and 88.2%												
83.5 nM and 85.2 nM		C=CC(=O)Nc1cc(Nc2nccc(-c3cn(C)c4ccccc34)n2)c(OC)cc1N(C)CCN(C)C							103% and 99.9%	99.5% and 112%	81.5% and 83.4%	83.7% and 76.9%	42.4% and 47.1%	24.2% and 20.6%						
< 31.6 nM		CC(=O)O[C@H]1C(=O)[C@@]2(C)[C@H]([C@H](OC(=O)c3ccccc3)[C@]3(O)C[C@H](OC(=O)[C@H](O)[C@@H](NC(=O)c4ccccc4)c4ccccc4)C(C)=C1C3(C)C)[C@]1(OC(C)=O)CO[C@@H]1C[C@@H]2O	24.8% and 41.2%	22.5% and 38.5%	21.1% and 41.4%	28.7% and 47.2%	23.2% and 42.7%	36.4% and 50.2%												
6.41 nM and 5.45 nM		CC(C)CC(NC(=O)C(Cc1ccccc1)NC(=O)c1cnccn1)B(O)O (centres undefined)							102% and 92.4%	112% and 103%	20.4% and 5.73%	3.18% and 1.36%	0.29% and 1.25%	0.24% and 4.02%						
> 10000 nM		CC(CO)NC(=O)c1cc(-c2ccc(Cl)cc2)nn(-c2cnn(C)c2)c1=O (centres undefined)	102% and 93.8%	95.6% and 100%	97.7% and 89.3%	101% and 94.3%	102% and 94.3%	95.6% and 99.3%												
82.4 nM		CC(Nc1ccc2c(c1)OCCn1cc(N3C(=O)OCC3C(F)F)nc1-2)C(N)=O (centres undefined)	89.2%	38.7%	28.3%	23.4%	13.5%	13.2%												
> 10000 nM and 8720 nM		CC1(C)CCC(CN2CCN(c3ccc(C(=O)NS(=O)(=O)c4ccc(NCC5CCOCC5)c([N+](=O)[O-])c4)c(Oc4cnc5[nH]ccc5c4)c3)CC2)=C(c2ccc(Cl)cc2)C1	79.2% and 90.1%	104% and 95.1%	97.9% and 100%	101% and 91.3%	93% and 97.6%	84.1% and 44%												
1640 nM and 2160 nM		CC1COCCN1c1cc(C2(S(C)(=N)=O)CC2)nc(-c2ccnc3[nH]ccc23)n1 (centres undefined)	93.5% and 84.9%	91.8% and 114%	82.2% and 76%	63.7% and 61.2%	32.2% and 49%	28.2% and 38.6%												
> 10000 nM		CCCS(=O)(=O)Nc1ccc(F)c(C(=O)c2c[nH]c3ncc(-c4ccc(Cl)cc4)cc23)c1F	115% and 95.8%	113% and 129%	116% and 105%	111% and 136%	120% and 141%	85.7% and 73.7%												
> 1000 nM		CCN1CCN(Cc2ccc(Nc3ncc(F)c(-c4cc(F)c5nc(C)n(C(C)C)c5c4)n3)nc2)CC1	89.7% and 115%	76.6% and 104%	97.1% and 112%	156% and 101%									107% and 111%	83.9% and 104%				
< 3.16 nM		CCc1c2c(nc3ccc(O)cc13)-c1cc3c(c(=O)n1C2)COC(=O)[C@]3(O)CC	32.2% and 42.1%	32.6% and 36%	11.1% and 16.2%	3.13% and 2.22%									37.6% and 46.9%	41% and 49.8%				
	168 nM [middle of 10 runs]	CN1CCN(c2cc(C(=O)Nc3cc4cc(-c5cnn(C)c5)ccc4cn3)ccn2)CC1	92.8% [middle of 12 runs]	75.6% [middle of 12 runs]	19.5% [middle of 12 runs]	2.43% [middle of 12 runs]	0.92% [middle of 10 runs]	0.22% [middle of 9 runs]												
756 nM and 631 nM		COC1C=CCC(C)C(C)S(=O)(=O)NC(=O)c2ccc3c(c2)N(CC2CCC21)CC1(CCCc2cc(Cl)ccc21)CO3 (centres undefined)	103% and 104%	72.9% and 83.5%	65.5% and 53.1%	50.5% and 46.5%	25.1% and 30.6%	12.7% and 13.8%												
8.88 nM		COc1c(OCCCN2CCOCC2)ccc2c3n(c(=NC(=O)c4cnc(N)nc4)nc12)CCN3	22.6%	10.7%	5.08%	3.71%									67%	48.4%				
> 100 nM		Cn1ncnc1[C@H]1c2n[nH]c(=O)c3cc(F)cc(c23)N[C@@H]1c1ccc(F)cc1	73.8% and 87%	69.2% and 77.6%											93.1% and 98.7%	92.4% and 87.5%	115% and 86.3%	96.7% and 94.6%		
73 nM and 31.1 nM		NC(=O)C(=Cn1cnc(-c2cc(C(F)(F)F)cc(C(F)(F)F)c2)n1)c1cncnc1									90.5% and 86%	72.8% and 48.9%	43.8% and 30.9%	18.4% and 12%					4.77% and 4.05%	8.1% and 6.28%
7730 nM and 6990 nM		Nc1ccccc1NC(=O)c1ccc(CNC(=O)OCc2cccnc2)cc1	97% and 102%	95.4% and 87.3%	90% and 113%	110% and 124%	95.8% and 101%	36.9% and 26.4%												
311 nM and 572 nM		Nc1ccn(C2OC(CO)C(O)C2(F)F)c(=O)n1 (centres undefined)	81.2% and 81.7%	78.9% and 76.2%	49.2% and 54.9%	31.5% and 44.2%	25.7% and 40.5%	30.1% and 32.9%												
> 10000 nM		O=C(c1cc(Cc2n[nH]c(=O)c3ccccc23)ccc1F)N1CCN(C(=O)C2CC2)CC1	102% and 97.1%	113% and 78.1%	95.2% and 74.9%	91.5% and 85.1%	86.9% and 76.4%	83.9% and 71.1%												
1990 nM and 4140 nM		O=c1[nH]cc(F)c(=O)[nH]1	96.6% and 97.4%	99.9% and 74.5%	85.2% and 65.8%	65.2% and 55.6%	38.4% and 53.1%	37% and 45.6%												
